From ChEMBL document CHEMBL1123182, “Synthesis and biological properties of chitin synthetase inhibitors resistant to cellular peptidases” (J Med Chem, 1986)
Converted amounts (≈) assume the structure as drawn.

What was measured:
[1] = test system: Candida albicans; experiment: Millimolar concentration at which some morphological effects in Candida albicans cells (about 5% of cells) was determined; type: functional; conditions: read-out: MEC
[2] = target: Chitin synthase 1 (Candida albicans) (UniProt P23316); experiment: Compound was tested for the inhibitory activity against chitin synthetase in the permeabilised cell assay
Chain of Chitin synthase 1 (Candida albicans) (P23316 whole entry, looked up): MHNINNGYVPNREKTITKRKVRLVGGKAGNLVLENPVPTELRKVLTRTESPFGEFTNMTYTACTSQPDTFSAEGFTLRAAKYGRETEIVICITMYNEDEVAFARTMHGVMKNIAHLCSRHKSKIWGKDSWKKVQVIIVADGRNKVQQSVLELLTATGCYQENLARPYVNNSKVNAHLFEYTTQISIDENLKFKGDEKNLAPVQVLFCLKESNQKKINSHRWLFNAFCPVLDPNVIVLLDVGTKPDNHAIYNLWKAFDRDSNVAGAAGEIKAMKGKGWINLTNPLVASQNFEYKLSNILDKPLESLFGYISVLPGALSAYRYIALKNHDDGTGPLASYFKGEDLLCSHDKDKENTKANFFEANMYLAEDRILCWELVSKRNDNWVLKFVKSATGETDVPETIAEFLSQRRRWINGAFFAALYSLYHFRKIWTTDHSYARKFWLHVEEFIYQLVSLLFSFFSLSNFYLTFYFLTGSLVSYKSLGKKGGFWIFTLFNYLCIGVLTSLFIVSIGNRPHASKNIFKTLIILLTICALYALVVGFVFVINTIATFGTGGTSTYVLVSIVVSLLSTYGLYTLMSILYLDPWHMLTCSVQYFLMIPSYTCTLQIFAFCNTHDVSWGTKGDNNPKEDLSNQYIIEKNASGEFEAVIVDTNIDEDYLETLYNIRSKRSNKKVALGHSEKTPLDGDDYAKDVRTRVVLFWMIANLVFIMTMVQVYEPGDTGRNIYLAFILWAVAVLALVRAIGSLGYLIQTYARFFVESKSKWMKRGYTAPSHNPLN

[3] = test system: Candida albicans; experiment: Millimolar concentration of the lowest concentration that clearly inhibited the cell growth of Candida albicans was determined; type: functional
[4] = test system: Candida albicans; experiment: Concentration at which 50% of the Candida albicans cells were not viable; type: functional
[5] = target: T1, Chitin synthase 1 (Candida albicans, UniProt P23316); experiment: Inhibition constant (KI) for the mmf chitin synthetase assay performed at constant inhibitor and varying substrate concentrations
T1 sequence (P23316 whole entry): as the sequence (P23316 whole entry, looked up) above

[6] = target: T1, Chitin synthase 1; experiment: Compound was tested for the inhibitory activity against chitin synthetase
[7] = target: Chitin synthase 1 (Candida albicans) (UniProt P23316); experiment: Compound was tested for the inhibitory activity against chitin synthetase in the mixed membrane preparation from Candida albicans; type: cell membranes
[8] = test system: Candida albicans; experiment: Compound was tested for the inhibitory activity against Candida albicans cell growth; type: functional

Structure (SMILES): NC(=O)OCC(O)C(O)C(N)C(=O)NC(C(=O)O)[C@H]1O[C@@H](n2cc(C(=O)O)c(=O)[nH]c2=O)[C@H](O)[C@@H]1O (some centres not stated)
- minimal effective concentration [1]: 20 µM
- ID50 [2]: 1 µM
- MIC [3]: 60 µM (≈ 31.3 µg/mL)
- concentration killing 50% of cells [4]: 1 mM
- Ki [5]: 0.59 µM

Structure (SMILES): NC(Cc1ccccc1)C(=O)N/C(=C/c1ccccc1)C(=O)NC(C(=O)O)[C@H]1O[C@@H](n2ccc(=O)[nH]c2=O)[C@H](O)[C@@H]1O (some centres not stated)
- minimal effective concentration [1]: > 2000 µM
- ID50 [2]: 80 µM
- Ki [6]: 11.3 µM
- MIC [3]: > 2000 µM
- ID50 [7]: 40 µM
- Viability [8]: >2 mM

Structure (SMILES): CCCCC(N)C(=O)NC(C(N)=O)[C@H]1O[C@@H](n2ccc(=O)[nH]c2=O)[C@H](O)[C@@H]1O (some centres not stated)
- minimal effective concentration [1]: > 4000 µM
- ID50 [2]: > 100 µM
- MIC [3]: > 1000 µM
- concentration killing 50% of cells [4]: >4 mM
- ID50 [7]: 200 µM
- Ki [5]: 246 µM

Structure (SMILES): CCCCCCCC(=O)NC(Cc1ccccc1)C(=O)NC(C(=O)NC(C(=O)O)[C@H]1O[C@@H](n2cc(C(=O)O)c(=O)[nH]c2=O)[C@H](O)[C@@H]1O)C(O)C(O)COC(N)=O (some centres not stated)
- minimal effective concentration [1]: 1000 µM
- ID50 [2]: 50 µM
- Ki [6]: 7.15 µM
- MIC [3]: 1000 µM (≈ 795 µg/mL)
- ID50 [7]: 47.5 µM
- Viability [8]: >1 mM

Structure (SMILES): N[C@@H](Cc1c[nH]c2ccccc12)C(=O)NC(C(=O)O)[C@H]1O[C@@H](n2ccc(=O)[nH]c2=O)[C@H](O)[C@@H]1O (some centres not stated)
- minimal effective concentration [1]: 4000 µM
- ID50 [2]: > 100 µM
- MIC [3]: > 1000 µM
- concentration killing 50% of cells [4]: >4 mM
- ID50 [7]: > 100 µM
- Ki [5]: 1060 µM

Structure (SMILES): CCCCC(NC)C(=O)NC(C(=O)O)[C@H]1O[C@@H](n2ccc(=O)[nH]c2=O)[C@H](O)[C@@H]1O (some centres not stated)
- minimal effective concentration [1]: 20 µM
- ID50 [2]: 97.5 µM
- MIC [3]: > 1000 µM
- concentration killing 50% of cells [4]: >4 mM
- ID50 [7]: 120 µM
- Ki [5]: 218 µM

Structure (SMILES): NOC(Cc1ccccc1)C(=O)NC(C(=O)O)[C@H]1O[C@@H](n2ccc(=O)[nH]c2=O)[C@H](O)[C@@H]1O (some centres not stated)
- minimal effective concentration [1]: > 3000 µM
- ID50 [2]: > 100 µM
- MIC [3]: 3000 µM (≈ 1350 µg/mL)
- concentration killing 50% of cells [4]: >3 mM
- ID50 [7]: 100 µM
- Ki [5]: 978 µM

Structure (SMILES): CCCNC(CC(C)C)C(=O)NC(C(=O)O)[C@H]1O[C@@H](n2ccc(=O)[nH]c2=O)[C@H](O)[C@@H]1O (some centres not stated)
- minimal effective concentration [1]: > 2500 µM
- ID50 [2]: > 100 µM
- Ki [6]: 145 µM
- MIC [3]: 2500 µM (≈ 1110 µg/mL)
- ID50 [7]: > 100 µM
- Viability [8]: >1 mM
